The text below walks through data of patent US9410958B2, “Alkyne-activated fluorogenic azide compounds and methods of use thereof” (The Regents of the University of California, priority 2014, dated 2016).

The nature of series [1]: Photophysical properties and fluorescence quantum yields of Si-rhodamines in PBS pH 7.4. It counts as physicochemical. The protocol:
The fluorescence quantum yields of the purified amino, azido, and triazolyl Si-rhodamines were measured in pH 7.4 phosphate buffered saline (PBS) using cresyl violet in methanol (Φfl=0.54) as a standard (Table 1). […] The best candidate of the four, 8-azidonaphthyl-substituted Si-rhodamine 1, afforded only a 5-fold increase in fluorescence quantum yield as compared with the 29-fold enhancement observed with the corresponding fluorescein.
Fluorescence quantum yields were measured by creating 2 mM stocks of dyes in MeOH. The dyes were then diluted to 20 μM in PBS, then further diluted in PBS to various final concentrations. The absorbance and emission spectra of five different concentrations of dye were measured while keeping maximum absorbance under 0.2. Solutions of probe were excited at 600 nm, and emission was integrated from 600 to 800 nm. Plotting integrated emission vs. absorbance at 600 nm yielded a line, whose slope corresponds to the fluorescence quantum yield. Absolute quantum yields were determined by comparison with the slope of the line measured for cresyl violet in MeOH (Φfl=0.54). The reported quantum yields are the average of three sets of measurements. Absorbance spectra were recorded on a Varian Cary 50 UV-Visible spectrophotometer. Fluorescence spectra were recorded on a Photon Technology International Quanta Master 4 L-format scanning spectrofluorometer equipped with an LPS-220B 75-W xenon lamp and power supply, A-1010B lamp housing with an integrated igniter, switchable 814 photon counting/analog photomultiplier detection unit, and MD5020 motor driver. Measurements were made in 1 cm×0.4 cm quartz cuvettes with a total sample volume of 1 mL.

In the next series the test system is mammalian cells. The series is described as follows: Mammalian cell surface labeling of Ac4ManNAl-treated cells. The format is cell-based. The conditions noted are these: cells labeled with Ac4ManNAl. The protocol:
Compound 9 was tested as a biological imaging reagent using mammalian cells that had been metabolically labeled with peracetylated N-pentynoylmannosamine (Ac4ManNAl), which is metabolized to N-pentynoyl sialic acid (SiaNAl) and presented on cell-surface glycoconjugates. […] It was hypothesized that replacing the methoxy groups with more water soluble alkoxy substituents would maintain the electronic balance between the pendant aryl and the Si-xanthene moieties while enhancing hydrophilicity. To this end, compound 10 was synthesized in six steps from 2,4-difluoronitrobenzene (FIG. 5, and Scheme 1).
Finally, 2.5 μL 1 mM azido fluorophore in 4:1 PBS/MeOH was added. […] Microscopy was performed using a Zeiss AxioVert 200M inverted microscope using a Plan-Neofluar 40×/0.75 objective. Exposure time was 1000 ms using the FITC, Cy3, or Cy5 filters. Images were acquired and processed using SlideBook 5.0, and are shown as a single z-plane.

In series [2] the test system is wild-type L. monocytogenes. In words: D-alanine competition experiment. The conditions noted are these: 5 mM cyclooctyne amino acid, 0 or 20 mM D-alanine.
Method: The bacteria were incubated with 5 mM cyclooctyne amino acid, in the presence of either 0 or 20 mM D-alanine, and labeled following the general procedure.
Bacteria were grown to an optical density (OD) of 0.4 in their respective media (7H9 for M. smegmatis, LB for C. glutamicum, BHI for L. monocytogenes) at 37° C. (M. smegmatis and L. monocytogenes) or 30° C. (C. glutamicum). Then, 5 mM D-amino acid was added (from a 1 M stock in H2O, 1 eq. NaOH was added to help solubilize compounds 12, 13, and 14) and the cells grown for one doubling time. The bacteria were then added to a 96-well V-bottom plate at 200 μL/well and pelleted by centrifugation at 3500 rpm for 3 min. The supernatant was removed and the cells resuspended in 200 μL PBS and pelleted again. This wash process was repeated twice more. The cells were then incubated with 100 μL of 20 μM azido-PEG3-carboxyrhodamine 110 (Click Chemistry Tools) in PBS (made by diluting a 1 mM stock in 9:1 PBS/DMSO) and placed in a 37° C. shaker for 1 h. Alternatively, for alkDala, labeling was performed by incubation with 100 μL of 20 μM azido-PEG3-carboxyrhodamine 110, 128 μM TBTA, 1 mM CuSO4, and 1.2 mM sodium ascorbate in PBS in a 37° C. shaker for 1 h. The cells were washed three times, then fixed with 4% paraformaldehyde for 10 min at rt. The cells were washed another three times, then studied by flow cytometry and microscopy.
The next series concerns Escherichia coli. In words: No-wash peptidoglycan labeling of Gram-negative Escherichia coli. The format is cell-based. The protocol: E. coli incubated with 5 mM endobcnDala or Dala for 2 h from a starting OD of 0.05 and imaged in the presence of 20 μM of azido Si-rhodamine 11 as described above. Only a fraction of the bacteria incubated with endobcnDala were fluorescently labeled under these conditions. (A), (C) Fluorescence and brightfield images of E. coli incubated with 5 mM endobcnDala. (B), (D) Fluorescence and brightfield images of E. coli incubated with 5 mM Dala. Scale bar=10 μm. […] Scale bar=1 μm.
Finally, the bacteria were imaged using the NIR fluorogenic azide probes. It was confirmed that azido Si-rhodamines 9, 10, and 11 would undergo an enhancement in fluorescence upon reaction with cyclooctynes. These probes were incubated with endo-bicyclononynol in vitro to generate triazole products (FIG. 24A). […] All three bacterial strains were incubated with endobcnDala 14 as before, but after washing away excess amino acid, the bacteria were incubated with 10 or 20 μM 11 for 1 hour and directly imaged without washing away excess probe (FIG. 7B). […] While the biosynthetic machinery can tolerate fluorophore-conjugated D-amino acids, allowing one-step PG imaging versus our two-step metabolic/chemical labeling approach, chemical reporter groups are much smaller than long-wavelength fluorophores and therefore minimize possible biological perturbations. […]

The next series relates to CHO K1 cells. In words: No-wash cell surface labeling of SiaNAl residues, CHO K1. It counts as cell-based. How it is done: Si-rhodamine 10 was evaluated as a reagent for imaging SiaNAl residues on live cell surfaces. CHO K1 cells were incubated with 50 μM Ac4ManNAl for 3 days, washed, and then incubated with 5 μM 10, 50 μM CuSO4, 300 μM BTTAA, and 1 mM sodium ascorbate. […] Cell-surface glycan labeling was visualized as it occurred in real time (FIG. 14). Background labeling was minimal on control cells treated with N-acetylmannosamine (Ac4ManNAc) (FIG. 13).

Series [3] concerns M. smegmatis, C. glutamicum, L. monocytogenes. The series is described as follows: No-wash peptidoglycan labeling with compound 11. The format is cell-based. The conditions noted are these: endobcnDala 14-treated, 10 or 20 μM probe, 1 hour. How it is done: Finally, the bacteria were imaged using the NIR fluorogenic azide probes. It was confirmed that azido Si-rhodamines 9, 10, and 11 would undergo an enhancement in fluorescence upon reaction with cyclooctynes. These probes were incubated with endo-bicyclononynol in vitro to generate triazole products (FIG. 24A). […] All three bacterial strains were incubated with endobcnDala 14 as before, but after washing away excess amino acid, the bacteria were incubated with 10 or 20 μM 11 for 1 hour and directly imaged without washing away excess probe (FIG. 7B). […] While the biosynthetic machinery can tolerate fluorophore-conjugated D-amino acids, allowing one-step PG imaging versus our two-step metabolic/chemical labeling approach, chemical reporter groups are much smaller than long-wavelength fluorophores and therefore minimize possible biological perturbations. […] It is hypothesized that the presence of an outer membrane (though apparently not a mycobacterial “mycomembrane”, FIG. 8A-D) limits access of compound 11 to PG. By contrast, smaller dyes were able to access both terminal alkynes and cyclooctynes in metabolically labeled E. coli PG (FIG. 27).
The bacteria were incubated with either endobcnDala or Dala and washed as described above. […]

The test system of a further series is HEK 293T cells. The series is described as follows: No-wash live cell surface labeling and mitochondrial co-staining, HEK 293T.
Another series deals with fixed HEK 293T cells. The series is described as follows: No-wash labeling of glycoproteins on fixed cells. It counts as cell-based. The conditions noted are these: 10 μM probe, 100 μM TBTA, 1 mM CuSO4, 2 mM sodium ascorbate. The protocol: (A) Labeling glycoproteins on live cell surfaces. […] (B) Labeling glycoproteins on fixed cells.
Fixed (3% paraformaldehyde) Ac4ManNAl-treated HEK 293T cells were also evaluated as substrates CalFluor labeling. In this case, copper-click reaction with 50 μM CuSO4 and 300 μM BTTAA gave poor labeling, potentially due to sequestration of the copper catalyst by denatured proteins. However, use of higher catalyst concentrations (100 μM TBTA, 1 mM CuSO4, 2 mM sodium ascorbate) gave robust labeling with 10 μM CalFluor dyes (FIG. 34B). […] Similar results were achieved when performing the same experiments on fixed CHO K1 cells.

Series [4] concerns sialic acids in developing zebrafish. In words: Visualizing sialic acids in developing zebrafish. The conditions noted are these: 24 or 36 hpf, imaged without washing. It counts as in vivo.
Method: The probes were tested for visualization of glycans in vivo. […] To test the utility of CalFluors in this system for such applications, zebrafish embryos at the single-cell stage were injected with SiaNAl. After either 24 or 36 hours post fertilization (hpf), the embryos were bathed in a solution containing a CalFluor probe along with copper catalyst.
Zebrafish were injected with 50 pmol SiaNAl at the one to four-cell stage and allowed to develop over time. (A) Real-time labeling of sialic acids. After 24 hpf, zebrafish were incubated in a solution containing 1 μM CalFluor 580 and copper catalyst. […] (B) Comparing no-wash labeling performance by azide probes. After 36 hpf, the embryos were transferred to a solution containing the fluorophore (1 μM for CalFluor 580 and AlexaFluor 594 alkyl azide, or 5 μM for 3-azido-7-hydroxycoumarin) and copper catalyst and imaged without washing after 20 minutes.
For series [5] the following is noted: in methanol; cited from earlier work.

Consider `COc1cc(OC)c(C2=C3C=CC(=[N+](C)C)C=C3[Si](C)(C)c3cc(N(C)C)ccc32)cc1N=[N+]=[N-]` [Compound 9-N3, 3-Azido-4,6-dimethoxy-Si-rhodamine], for which, in series [1], the λabs amounted to 654 nm and the λem was 666 nm. The compound also displayed a Φfl in series [1] (cresyl violet in methanol as standard) of 0.0042. Besides, in series [1] (increase (↑), triazole relative to the azide), the “Change in Φfl” value came out at 48 fold. Further, the background labeling result in the series with mammalian cells was “significant alkyne-independent background labeling even after repeated washing steps”.
As for `NC(CNC(=O)OC[C@H]1[C@@H]2CCC#CCC[C@@H]21)C(=O)O` (stereo partly shown) [Compound 13], in series [2], the “effect of excess D-alanine on labeling” value is “excess D-alanine decreases the fluorescence intensity”.
With `NC(CNC(=O)OC[C@@H]1[C@@H]2CCC#CCC[C@@H]21)C(=O)O` (stereo partly shown) [Compound 14], the “metabolic incorporation of D-amino acid” value in the series on Escherichia coli is recorded as “similarly to the Gram-positive bacteria”. The “effect of excess D-alanine on labeling” value in series [2] is given as “excess D-alanine decreases the fluorescence intensity”.
In the case of `CN(C)c1ccc2c(c1)[Si](C)(C)C1=CC(=[N+](C)C)C=CC1=C2c1cc(N=[N+]=[N-])c(OCCOCCOS(=O)(=O)O)cc1OCCOCCOS(=O)(=O)[O-]` [Compound 11], the cell-surface labeling result in the series on CHO K1 cells (Ac4ManNAl-treated CHO K1, no wash, 15 min) is on record as “robust cell-surface labeling”. In addition, in the series on CHO K1 cells (CHO K1, control or unwanted labeling), the background labeling entry was “no unwanted background or mitochondrial labeling”. In series [3], the “no-wash fluorescence signal on bacteria” value is reported as “Clear fluorescence signal over background”. The “labeling of peptidoglycan with dye” value in the series on Escherichia coli (5 mM endobcnDala, 20 μM probe) is “not efficiently labeled”. Moreover, the cell-surface labeling result in the series with HEK 293T cells (Ac4ManNAl-treated HEK 293T, no wash) is on record as “robust cell-surface labeling”. In the series on HEK 293T cells (HEK 293T), the “background, intracellular or mitochondrial labeling” value is reported as “no unwanted background or mitochondrial labeling” and the cell permeability entry is “not cell permeable”.
With `NC(CNC(=O)OC1C#CCCCCC1)C(=O)O` (stereo not shown) [Compound 12], in series [2], the “effect of excess D-alanine on labeling” value was “excess D-alanine decreases the fluorescence intensity”.
As for `[N-]=[N+]=Nc1cc2ccc(O)cc2oc1=O`, the “labeling of fixed cells” value in the series on fixed HEK 293T cells is “performed comparably to the CalFluors”. Moreover, the no-wash alkyne-dependent labeling result in series [4] is recorded as “obscured alkyne-dependent labeling”.
With cresyl violet, in series [5], the “Φfl of the standard” value was 0.54.
